The results in this text go back to patent publication US20230382915A1, “GCN2 AND PERK KINASE INHIBITORS AND METHODS OF USE THEREOF” (Deciphera Pharmaceuticals, LLC, priority 2021, published 2023).

Molecules are shown by their SMILES.

In one experiment the target is GCN2 kinase (Homo sapiens (Human), UniProt Q9P2K8). As to the kind of experiment: Biochemical assay for GCN2 (TR-FRET kinase activity). As to conditions: 1 mM ATP. As for the experimental part: Activity of GCN2 kinase was determined using a TR-FRET kinase activity assay (e.g. Riddle et al. Analytical Biochemistry (2006) 356(1) 108-116). Assays were conducted in 384-well plates (13 μL assay volume) using 2 nM GCN2 (Carna Biosciences), 130 nM GFP-EIf2α (Invitrogen), 0.2 mg/mL E. coli tRNA (sigma) and 1 mM ATP in kinase buffer (Invitrogen). Inhibition of GCN2 was measured by adding serial diluted test compound (final assay concentration of 0.5% DMSO) followed by a 3-hour incubation. Tb-peIF2α (pSer52) antibody (Invitrogen) (2 nM final assay concentration) in kinase buffer containing EDTA (final assay concentration of 20 mM) was added. After a 60 min incubation at room temperature, TR-FRET was monitored using an excitation wavelength of 340 nm and emission wavelengths of 490 nm and 520 nm. The emission ratio (520/490) at each compound concentration of was converted to percent inhibition using controls (i.e., reaction with no test compound and reaction with a known inhibitor) and IC50 values were calculated by fitting a four-parameter sigmoidal curve to the data using Prism (GraphPad software).
A general note: TR-FRET usually uses a lanthanide donor and a delayed reading to cut background.

The target in a further experiment is PERK enzyme (Homo sapiens (Human), UniProt Q9NZJ5). As to the kind of experiment: Biochemical assay for PERK (coupled pyruvate kinase/lactate dehydrogenase). Particulars: 1 mM ATP. The method, then:
Activity of PERK kinase was determined spectroscopically using a coupled pyruvate kinase/lactate dehydrogenase assay that continuously monitors the ATP hydrolysis-dependent oxidation of NADH (e.g., Schindler et al. Science (2000) 289: 1938-1942). Assays were conducted in 384-well plates ([…] final volume) using 10 nM PERK (from Beryllium), 0.25 mg/mL Myelin Basic Protein substrate, 1.5 units pyruvate kinase, 2.1 units lactate dehydrogenase, 1 mM phosphoenol pyruvate, 0.28 mM NADH and 1 mM ATP in assay buffer (100 mM Tris, pH 7.5, 15 mM MgCl2, 0.5 mM DTT, 0.004% (w/v) BSA, and 0.004% Triton X-100). Inhibition of PERK was measured by adding serial diluted test compound (final assay concentration of 1% DMSO). A decrease in absorption at 340 nm was monitored continuously for 6 hours at 30° C. on a multi-mode microplate reader (BioTek). The reaction rate was calculated using the 2-3 h time frame. The reaction rate at each concentration of compound was converted to percent inhibition using controls (i.e., reaction with no test compound and reaction with a known inhibitor) and IC50 values were calculated using software routines in Prism (GraphPad software).

The next experiment relates to CCRF-CEM leukemia cells. The experiment in a line: CCRF-CEM ASNase cell proliferation assay. As to conditions: Homo sapiens, 1 mU/mL ASNase, 72 h. In kind it is cell-based. As for the experimental part:
CCRF-CEM leukemia cells (catalog #CCL-116) were obtained from the American Type Culture Collect (ATTC, Manassas, VA). Cells were grown in RPMI-1640 medium supplemented with 10% heat-inactivated fetal bovine serum (Invitrogen, Carlsbad, CA) and 1% Penicillin/Streptomycin/L-Glutamine at 37° C., 5% CO2, and 95% humidity. Cells were expanded until reaching one million cells per mL at which time they are subcultured or harvested for assay use. Ten thousand cells per well in 200 μL RPMI-1640 supplemented with 10% heat-inactivated fetal bovine serum and 1% Penicillin/Streptomycin were dispensed into a 96-well black clear bottom plate. A serial dilution of test compound and 1 mU/mL ASNase was added in triplicate and plates were incubated for 72 h at 37° C., 5% CO2, and 95% humidity. At the end of the incubation, 40 μL of a […] solution of resazurin (Sigma, St. Louis, MO) in PBS was added to each well of the plate and plates were incubated for an additional 6 h at 37° C., 5% CO2, and 95% humidity. Plates were read on a Synergy2 or equivalent reader (Biotek, Winooski VT) using an excitation of 540 nm and an emission of 600 nm. Data was analyzed using GraphPad Prism software (GraphPad, San Diego, CA) to calculate IC50 values.

Experiment [1] concerns phospho-GCN2 (Thr899) in HCT116 colorectal cancer cells. The experiment in a line: HCT116 amino acid starved (-AA) phospho-GCN2 Western blot. In kind it is cell-based. As to conditions: Homo sapiens, HCT-116, 4 h, read-out: HCT116 -AA pGCN2 Western Blot. The method, then: (§1) HCT116 colorectal cancer cells (catalog #CCL-247) were obtained from the American Type Culture Collect (ATTC, Manassas, VA). Briefly, cells were grown in RPMI 1640 supplemented with 10% heat inactivated fetal bovine serum (Invitrogen, Carlsbad, CA) and 1% Penicillin/Streptomycin/L-Glutamine at 37° C., 5% CO2, and 95% humidity. Cells were expanded until reaching 70-95% confluency at which point they were subcultured or harvested for assay use. Cells were seeded in 12-well culture plate at five hundred thousand cells per well in 1 mL complete growth medium and incubated overnight at 37° C., 5% CO2, and 95% humidity. The next day each well was replaced with 1 mL Earle's Balanced Salt Solution (EBSS, Invitrogen, Carlsbad, CA) supplemented with 10% Dialyzed Fetal Bovine Serum, 5.5 mM Glucose, 1% Penicillin/Streptomycin and 1% Vitamin solution (thermo #11120052). A serial dilution of test compound was dispensed into well. Plates were incubated for 4 h at 37° C., 5% CO2, and 95% humidity. […] Western blot was performed on each lysate to quantify phospho-GCN2 (Thr899), total GCN2, ATF4 and beta-Actin. […] Data were analyzed using GraphPad Prism software (GraphPad, San Diego, CA) to calculate IC50 values.
Background: Immunoblotting shows a protein as a band on a membrane.

For experiment [2], the system named is ATF4 in HCT116 colorectal cancer cells. The experiment in a line: HCT116 amino acid starved (-AA) ATF4 Western blot. In kind it is cell-based. As to conditions: Homo sapiens, HCT-116, 4 h. As for the experimental part:
as §1

Experiment [3] concerns ATF4 in thapsigargin stimulated CCRF-CEM cells (PERK). As to the kind of experiment: CCRF-CEM thapsigargin (TG) ATF4 ELISA. In kind it is cell-based. As to conditions: Homo sapiens, 1 μM thapsigargin. As for the experimental part:
CCRF-CEM leukemia cells (catalog #CCL-116) were obtained from the American Type Culture Collection (ATTC, Manassas, VA). Briefly, cells were grown in RPMI-1640 medium supplemented with 10% heat-inactivated fetal bovine serum (Invitrogen, Carlsbad, CA) and 1% Penicillin/Streptomycin/L-Glutamine at 37° C., 5% CO2, and 95% humidity. Cells were expanded until reaching one million cells per mL at which time they were subcultured or harvested for assay use. One million five hundred thousand cells per well in 1 mL complete growth medium were dispensed into 12-well plates and incubated overnight. A serial dilution of test compound was added and cells were incubated at 37° C., 5% CO2, and 95% for three hours, then 1 μM thapsigargin was added and cells were incubated for an additional hour at 37° C., 5% CO2, and 95%. Cells were lysed then ATF4 levels were measured using an ELISA assay (Proteintech, Rosemont, IL). Absorbance was measured at 450 nm and 544 nM using a Synergy2 or equivalent reader (Biotek, Winooski VT). Data was analyzed using PRISM software (Graphpad, San Diego, CA) to calculate IC50 values.
(In an ELISA, binding on a coated surface is turned into a signal by an enzyme label.)

For experiment [4], the system named is ATF4 in H929 multiple myeloma cells. As to the kind of experiment: H929 ATF4 ELISA assay. In kind it is cell-based. As to conditions: four hours, relative to vehicle treated control. The method, then:
H929 multiple myeloma cells (catalog #CRL-9068) were obtained from the American Type Culture Collection (ATTC, Manassas, VA). Briefly, cells were grown in RPMI-1640 medium supplemented with 20% heat-inactivated fetal bovine serum (catalog #A3840002, ThermoFisher Scientific, Waltham, MA), 1% Penicillin/Streptomycin/L-Glutamine (catalog #10378016, ThermoFisher Scientific, Waltham, MA), and 0.05 mM 2-mercaptoethanol (catalog #21985-023, ThermoFisher Scientific, Waltham, MA) at 37° C., 5% CO2, and 95% humidity. Cells were expanded until reaching one million five hundred thousand cells per mL at which time they were sub-cultured or harvested for assay use. One million five hundred thousand cells per well in 1 mL complete growth medium were dispensed into 12-well plates and incubated overnight. A serial dilution of test compound was added, and cells were incubated at 37° C., 5% CO2, and 95% for four hours. Cells were lysed then ATF4 levels were measured using an ELISA assay (Proteintech, Rosemont, IL). Absorbance is measured at 450 nm and 544 nM using a Synergy2 or equivalent reader (Biotek, Winooski VT). Data were analyzed using PRISM software (Graphpad, San Diego, CA) to calculate fold stimulation of cellular ATF4 relative to vehicle treated control.

Sequence of GCN2 kinase (Q9P2K8 whole entry): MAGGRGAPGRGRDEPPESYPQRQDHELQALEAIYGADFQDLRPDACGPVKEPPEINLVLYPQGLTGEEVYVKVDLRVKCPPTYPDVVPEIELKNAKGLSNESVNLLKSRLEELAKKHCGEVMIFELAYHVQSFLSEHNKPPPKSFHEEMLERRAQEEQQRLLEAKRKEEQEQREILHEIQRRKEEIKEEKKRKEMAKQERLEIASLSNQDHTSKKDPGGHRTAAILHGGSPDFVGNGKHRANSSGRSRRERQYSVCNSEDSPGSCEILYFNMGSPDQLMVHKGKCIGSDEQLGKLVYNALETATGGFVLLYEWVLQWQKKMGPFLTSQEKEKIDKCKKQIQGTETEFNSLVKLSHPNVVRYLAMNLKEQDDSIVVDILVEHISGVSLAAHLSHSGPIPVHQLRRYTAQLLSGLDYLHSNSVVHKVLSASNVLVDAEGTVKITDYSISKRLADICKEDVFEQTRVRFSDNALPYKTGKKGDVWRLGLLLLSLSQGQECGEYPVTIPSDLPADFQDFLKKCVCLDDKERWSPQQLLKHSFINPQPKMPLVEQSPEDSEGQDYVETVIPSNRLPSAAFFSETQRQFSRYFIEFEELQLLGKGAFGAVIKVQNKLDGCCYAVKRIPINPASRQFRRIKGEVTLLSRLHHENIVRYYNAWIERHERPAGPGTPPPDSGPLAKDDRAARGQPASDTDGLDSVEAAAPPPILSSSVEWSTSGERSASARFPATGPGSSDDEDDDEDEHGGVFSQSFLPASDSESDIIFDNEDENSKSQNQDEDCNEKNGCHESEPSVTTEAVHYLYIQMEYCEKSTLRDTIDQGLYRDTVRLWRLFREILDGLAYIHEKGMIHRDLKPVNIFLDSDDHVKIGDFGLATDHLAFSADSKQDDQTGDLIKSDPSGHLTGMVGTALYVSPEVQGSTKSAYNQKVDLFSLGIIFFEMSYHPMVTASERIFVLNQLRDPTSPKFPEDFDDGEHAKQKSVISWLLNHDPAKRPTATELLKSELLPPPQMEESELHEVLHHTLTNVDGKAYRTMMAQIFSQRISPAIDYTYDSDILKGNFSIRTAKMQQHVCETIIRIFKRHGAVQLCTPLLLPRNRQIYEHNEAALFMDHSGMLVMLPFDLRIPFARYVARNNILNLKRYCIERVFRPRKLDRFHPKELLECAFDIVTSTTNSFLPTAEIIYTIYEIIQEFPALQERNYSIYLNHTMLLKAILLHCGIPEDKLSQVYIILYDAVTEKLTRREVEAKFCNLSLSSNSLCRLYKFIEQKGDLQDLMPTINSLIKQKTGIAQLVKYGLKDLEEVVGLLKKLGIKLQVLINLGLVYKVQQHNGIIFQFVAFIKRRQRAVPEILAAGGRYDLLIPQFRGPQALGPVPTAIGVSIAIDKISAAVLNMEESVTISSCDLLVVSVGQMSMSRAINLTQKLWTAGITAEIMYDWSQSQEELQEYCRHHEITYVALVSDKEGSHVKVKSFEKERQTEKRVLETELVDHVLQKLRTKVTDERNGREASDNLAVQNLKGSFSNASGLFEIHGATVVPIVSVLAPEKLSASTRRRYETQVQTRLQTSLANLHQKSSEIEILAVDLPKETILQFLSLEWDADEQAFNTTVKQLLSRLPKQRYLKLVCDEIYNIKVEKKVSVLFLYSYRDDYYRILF
Sequence of PERK enzyme (Q9NZJ5 other isoform, or with tags, fused parts or gaps): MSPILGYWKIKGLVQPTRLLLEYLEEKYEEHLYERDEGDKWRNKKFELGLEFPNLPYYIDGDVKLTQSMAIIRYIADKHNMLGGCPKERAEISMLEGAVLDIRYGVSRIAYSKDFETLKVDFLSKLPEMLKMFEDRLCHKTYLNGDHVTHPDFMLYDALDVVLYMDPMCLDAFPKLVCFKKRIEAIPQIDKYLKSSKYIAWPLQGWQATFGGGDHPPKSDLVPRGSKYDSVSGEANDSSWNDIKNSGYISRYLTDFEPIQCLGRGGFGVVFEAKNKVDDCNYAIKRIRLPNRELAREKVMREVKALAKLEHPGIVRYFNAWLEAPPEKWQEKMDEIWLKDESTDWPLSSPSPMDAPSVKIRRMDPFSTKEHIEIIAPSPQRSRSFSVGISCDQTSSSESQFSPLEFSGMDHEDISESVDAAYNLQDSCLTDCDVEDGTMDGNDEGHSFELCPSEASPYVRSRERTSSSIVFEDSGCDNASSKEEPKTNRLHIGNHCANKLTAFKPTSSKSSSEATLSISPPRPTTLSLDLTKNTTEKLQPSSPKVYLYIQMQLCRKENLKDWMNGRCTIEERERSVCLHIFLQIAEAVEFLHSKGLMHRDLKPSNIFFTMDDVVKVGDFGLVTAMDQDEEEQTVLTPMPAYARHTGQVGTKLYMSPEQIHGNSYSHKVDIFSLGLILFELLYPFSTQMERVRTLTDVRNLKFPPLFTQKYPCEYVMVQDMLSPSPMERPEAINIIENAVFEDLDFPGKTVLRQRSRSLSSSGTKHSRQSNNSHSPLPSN

Turning to `CC(C)n1cc(-c2cccc(NS(=O)(=O)c3cc(Cl)cc(CO)c3Cl)c2F)c2c(N)ncnc21` [Example 3], the IC50 (against GCN2 kinase; on PERK enzyme; in the experiment with CCRF-CEM leukemia cells; in experiment [1]; in experiment [2]; in experiment [3]) was no more than 100 nM each time.
In the case of `COCCn1cc(-c2cccc(NS(=O)(=O)c3cc(Cl)cc(CO)c3Cl)c2F)c2c(N)ncnc21` [Example 4], the IC50 (on GCN2 kinase; on PERK enzyme; with CCRF-CEM leukemia cells; in experiment [3]) was no more than 100 nM each time. For the same molecule, the “H929 NS ATF4 ELISA (ATF4 stim)” value in experiment [4] was “+++ (an ATF4 stim greater than 10 fold and less than or equal to 20 fold)”.
With `Cn1cc(-c2cccc(NS(=O)(=O)c3cccc(CO)c3Cl)c2F)c2c(N)ncnc21` [Example 5], the IC50 at GCN2 kinase is 1000 to 10000 nM; on PERK enzyme it was no more than 100 nM; with CCRF-CEM leukemia cells it was 1000 to 10000 nM; in experiment [3], 100 to 500 nM. Further, in experiment [4], the “H929 NS ATF4 ELISA (ATF4 stim)” value is “++ (an ATF4 stim greater than 5-fold and less than or equal to 10 fold)”.
Turning to `Nc1ncnc2c1c(-c1cccc(NS(=O)(=O)c3cc(Cl)cc(CO)c3Cl)c1F)cn2C1CC1` [Example 8], the IC50 (against GCN2 kinase; on PERK enzyme; in the experiment on CCRF-CEM leukemia cells; in experiment [3]) was no more than 100 nM each time. Further, in experiment [4], the “H929 NS ATF4 ELISA (ATF4 stim)” value is “+++ (an ATF4 stim greater than 10 fold and less than or equal to 20 fold)”.
With `Nc1ncnc2c1c(-c1cccc(NS(=O)(=O)c3cc(Cl)cc(CO)c3Cl)c1F)cn2C1COC1` [Example 10], the IC50 (on GCN2 kinase; against PERK enzyme; in the experiment with CCRF-CEM leukemia cells; in experiment [3]) was no more than 100 nM in each case. In addition, the “H929 NS ATF4 ELISA (ATF4 stim)” value in experiment [4] is “+++ (an ATF4 stim greater than 10 fold and less than or equal to 20 fold)”.
For the molecule `Cn1cc(-c2cc(F)cc(NS(=O)(=O)c3cc(Cl)cc(CO)c3Cl)c2F)c2c(N)ncnc21` [Example 14], the IC50 was no more than 100 nM against GCN2 kinase, no more than 100 nM against PERK enzyme, 100 to 500 nM in the experiment on CCRF-CEM leukemia cells and 100 to 500 nM in experiment [3]. For the same molecule, the “H929 NS ATF4 ELISA (ATF4 stim)” value in experiment [4] is “++ (an ATF4 stim greater than 5-fold and less than or equal to 10 fold)”.
For the molecule `Cn1nc(-c2cccc(NS(=O)(=O)c3cc(Cl)cc(CO)c3Cl)c2F)c2c(N)ncnc21` [Example 21], the IC50 against GCN2 kinase was no more than 100 nM; against PERK enzyme, no more than 100 nM; in the experiment with CCRF-CEM leukemia cells it was 100 to 500 nM; in experiment [3] it was 100 to 500 nM. The “H929 NS ATF4 ELISA (ATF4 stim)” value in experiment [4] was “++ (an ATF4 stim greater than 5-fold and less than or equal to 10 fold)”.
`COc1c(CO)cc(Cl)cc1S(=O)(=O)Nc1cccc(-c2cn(C)c3ncnc(N)c23)c1F` [Example 24]: the IC50 at GCN2 kinase is 1000 to 10000 nM; against PERK enzyme, no more than 100 nM; in the experiment on CCRF-CEM leukemia cells it was 1000 to 10000 nM; in experiment [3] it was 100 to 500 nM. Also, the “H929 NS ATF4 ELISA (ATF4 stim)” value in experiment [4] was “++ (an ATF4 stim greater than 5-fold and less than or equal to 10 fold)”.
With `Cc1cc(CO)c(Cl)c(S(=O)(=O)Nc2cccc(-c3cn(C)c4ncnc(N)c34)c2F)c1` [Example 25], the IC50 against GCN2 kinase is 100 to 500 nM; at PERK enzyme, no more than 100 nM; in the experiment with CCRF-CEM leukemia cells, 100 to 500 nM; in experiment [3], no more than 100 nM. In addition, the “H929 NS ATF4 ELISA (ATF4 stim)” value in experiment [4] is “+++ (an ATF4 stim greater than 10 fold and less than or equal to 20 fold)”.
Regarding `Cc1c(CO)cc(Cl)cc1S(=O)(=O)Nc1cccc(-c2cn(C)c3ncnc(N)c23)c1F` [Example 26], the IC50 against GCN2 kinase is no more than 100 nM; against PERK enzyme, no more than 100 nM; in the experiment on CCRF-CEM leukemia cells it was 100 to 500 nM; in experiment [3] it was no more than 100 nM. The “H929 NS ATF4 ELISA (ATF4 stim)” value in experiment [4] was “+++ (an ATF4 stim greater than 10 fold and less than or equal to 20 fold)”.
